According to patent US12635693B2, “Activated ferrate compositions and methods” (THE TEXAS A&M UNIVERSITY SYSTEM, priority 2020, dated 2026):

Experiment: Removal (oxidation) of Carbamazepine (CBZ) by ferrate with or without amino acids, HPLC
Conditions: [ferrate]=100.0 μM
Protocol: (Experimental conditions: [CBZ]=5.0 μM, [ferrate]=100.0 μM, [amino acid]=100.0 μM, pH 9.0 (10.0 mM borate buffer), reaction time=1 min).
After certain reaction time, a 20.0 μL NH2OH solution (1 M, [NH2OH]: [ferrate]=10.0) was added to quench the reactions. Samples were transferred into high performance liquid chromatography (HPLC) vials and subsequently analyzed using the HPLC method. Each treatment was performed with triplicates and the mean removal values were reported.
Preliminary experiments were conducted to see the influence of amino acids (100.0 μM) on removal of CBZ (5.0 μM) by ferrate (100.0 μM) at pH 9.0 (10.0 mM borate buffer) after 1 min of oxidation. In these experiments, the solution of selected amino acids (FIG. 1) was mixed with CBZ, followed by addition of ferrate.

Structure (SMILES)	removal of CBZ (ferrate only (without proline), [CBZ]=5.0 μM, pH 9.0 (10.0 mM borate buffer), 80 min)	oxidation of CBZ (molar ratio of proline to ferrate 1.0, within 90 s, pH 9.0)
[O]=[Fe](=[O])([O-])[O-] [ferrate]	70%	–
O=C(O)[C@@H]1CCCN1 [proline]	–	100%
